{"source": "patent US7754707B2", "about": "“Methods of treatment of chronic immune disease” (R.E.D. Laboratories, N.V./S.A., priority 2002, dated 2010)", "key": {"[1]": {"system": "RNase L Protein in the Human Monocytic Leukemia Cell Line U937", "test": "RNase L fragmentation (2-5A binding proteins) in U937 cells, treatment Regimen #1", "type": "cell-based", "details": "FIGS. 2 and 3 (Regimens #1 and #2)", "from_the_text": "(§1) In the first condition (Regimen #1), confluent cultures of U937 cells were allowed to remain in culture for an additional 7 days without feeding or media supplementation in order to induce the cells to begin to undergo apoptosis, resulting in the fragmentation of native RNase L (among other proteins)."}, "alpha-1-antitrypsin": {"system": "alpha-1-antitrypsin", "details": "through direct interaction of the drug with HOCl; cited from earlier work"}, "elastase": {"target": "T1, elastase (Homo sapiens, UniProt P08246)", "T1 construct": "15 micrograms of U937 cell cytoplasmic protein extract was mixed with 0.1 microgram of ^32P-2-5A-radio labeled rRNase L; endogenous in cells; host or cells: U937 cells (cytoplasmic protein extract)", "T1 sequence (P08246 30-267)": "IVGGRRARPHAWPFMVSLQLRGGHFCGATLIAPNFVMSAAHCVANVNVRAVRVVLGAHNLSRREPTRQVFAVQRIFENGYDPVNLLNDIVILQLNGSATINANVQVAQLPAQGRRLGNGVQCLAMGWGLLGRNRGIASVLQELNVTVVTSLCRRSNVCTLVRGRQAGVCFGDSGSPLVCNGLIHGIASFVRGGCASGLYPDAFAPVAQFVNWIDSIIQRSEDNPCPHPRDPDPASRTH", "test": "Fragmentation of radio labeled rRNase L by cytoplasmic protein extracts of cefoperazone-treated U937 cells", "type": "cell-based", "details": "extracts of U937 cells treated 72 hours with 10-1000 micrograms/mL; 15 micrograms extract, 5 minutes at 37 C; FIG. 4", "method": "as §1\nBriefly, 15 micrograms of U937 cell cytoplasmic protein extract was mixed with 0.1 microgram of ^32P-2-5A-radio labeled rRNase L for a fixed incubation period (5 minutes) at 37 C. The reaction was terminated by the addition of 2×SDS-PAGE loading buffer, the samples were prepared and electrophoresed as described above and analyzed using densitometry."}}, "note": "“Also recorded” adds a separate entry of the source.", "data": [{"compound": "CCN1CCN(C(=O)N[C@@H](C(=O)N[C@@H]2C(=O)N3C(C(=O)O)=C(CSc4nnnn4C)CS[C@H]23)c2ccc(O)cc2)C(=O)C1=O", "note": "[cefoperazone]", "values": [{"measurement": "production of the low molecular weight fragment of native RNase L protein", "setting": "[1]", "value": "inhibition is dose-dependent"}, {"measurement": "level of inactivation of alpha-1-antitrypsin by activated neutrophils", "setting": "alpha-1-antitrypsin", "value": "reduce the level of inactivation of alpha-1-antitrypsin"}, {"measurement": "elastase activity (amount of LMW rRNase L protein generated from pre-labeled HMW rRNase L)", "setting": "elastase", "value": "inhibition occurs in a dose-dependent fashion; also recorded: marked inhibition of elastase activity"}]}]}
